pIC50: −log10 of the molar value.

Sequence of Pol theta (1-899) (O75417 1-899): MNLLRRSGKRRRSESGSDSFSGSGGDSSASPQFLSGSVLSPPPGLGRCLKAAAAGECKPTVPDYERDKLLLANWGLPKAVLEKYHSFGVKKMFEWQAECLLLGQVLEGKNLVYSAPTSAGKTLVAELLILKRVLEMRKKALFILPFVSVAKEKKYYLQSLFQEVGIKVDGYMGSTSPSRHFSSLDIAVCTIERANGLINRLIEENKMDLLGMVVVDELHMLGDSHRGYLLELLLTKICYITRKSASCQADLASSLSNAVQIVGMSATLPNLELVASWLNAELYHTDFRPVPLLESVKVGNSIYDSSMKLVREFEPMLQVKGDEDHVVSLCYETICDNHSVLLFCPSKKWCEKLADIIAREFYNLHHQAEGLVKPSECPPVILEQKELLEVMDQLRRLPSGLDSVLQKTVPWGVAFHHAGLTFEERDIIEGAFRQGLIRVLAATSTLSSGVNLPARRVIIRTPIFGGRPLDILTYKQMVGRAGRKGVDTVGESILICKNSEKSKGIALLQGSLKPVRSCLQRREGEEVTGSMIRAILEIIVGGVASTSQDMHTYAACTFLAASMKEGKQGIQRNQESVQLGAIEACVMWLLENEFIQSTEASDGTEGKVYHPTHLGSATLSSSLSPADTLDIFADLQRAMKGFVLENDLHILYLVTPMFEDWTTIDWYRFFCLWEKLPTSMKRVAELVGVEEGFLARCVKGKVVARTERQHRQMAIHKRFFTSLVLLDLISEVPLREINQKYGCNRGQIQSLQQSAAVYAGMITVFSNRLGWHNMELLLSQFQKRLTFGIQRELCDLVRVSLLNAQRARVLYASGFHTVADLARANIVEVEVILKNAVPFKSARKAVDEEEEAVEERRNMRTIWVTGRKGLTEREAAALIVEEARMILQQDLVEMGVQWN

The assay concerns the target Pol theta (1-899) (Homo sapiens (Human), UniProt O75417). Nature of the assay: Pol theta ATPase activity, NADH oxidation-coupled enzymatic assay. It is filed as biochemical. The conditions noted are these: Pol theta (1-899) 10 nM, ATP, dT50 ssDNA, absorbance 340 nm, 10-point dilution series; read-out: ATPase NADH coupling:Standard Screening:hPolQ IC50. How it is done: The ability of the compounds of Formula (I) to inhibit ATPase activity of Pol theta (1-899) was determined using the assay described below.
Pol Theta ATPase activity was determined by measuring the rate of ATP turn over in a NADH oxidation-coupled enzymatic assay. 10-point dilution series of compounds were used in a 384 well format for the inhibition assays. Pol theta (1-899) (10 nM) in assay buffer (20 mM Tris HCl (pH 7.80), 80 mM KCl, 10 mM MgCl2, 1 mM DTT, 0.01% BSA, 0.01% Tween, 5% glycerol) was transferred to the test wells (20 μL), except the low control wells (20 μL of assay buffer was added to the low control wells). The plate was then incubated at room temperature for 15 min. An equal volume (20 μL) of 100 μM ATP, 300 nM dT50 (single-stranded DNA (ssDNA) containing 50 thymine bases), 300 μM NADH, 6 mM PEP, 10 U/mL lactate dehydrogenase and 20 U/mL pyruvate kinase in assay buffer was added to all the test wells. The plate was then centrifuged at 1000 rpm for 1 min. The reaction was monitored for 30 min by measuring absorbance (λ=340 nm) in a Tecan Spark multimode plate reader every minute. The high control (DMSO with enzyme) with low absorbance intensity represents no inhibition of ATPase reaction while the low control (DMSO with buffer) with high absorbance intensity represents full inhibition of ATPase activity. Slope of the reaction progress curves were used to calculate the rate of ATP hydrolysis. The rates were used to determine the percent inhibition using a four-parameter inhibition model to generate IC50, Hill slope and max inhibition.
`COc1ccccc1-n1cncc1C(=O)Nc1nnc(OCc2ccc(Cl)cc2)s1` [Example 50, N-(5-((4-chlorobenzyl)oxy)-1,3,4-thiadiazol-2-yl)-1-(2-methoxyphenyl)-1H-imidazole-5-carboxamide]: the pIC50 – broadly, −log10 of the IC50, conventionally taken in molar units – was no less than 6.70.
On to `CC1CN(c2ncccc2C(=O)Nc2nnc(OCc3ccc(Cl)cc3)s2)CCO1` (racemic) [Example 7, (R)—N-(5-((4-chlorobenzyl)oxy)-1,3,4-thiadiazol-2-yl)-2-(2-methylmorpholino)nicotinamide and (S)—N-(5-((4-chlorobenzyl)oxy)-1,3,4-thiadiazol-2-yl)-2-(2-methylmorpholino)nicotinamide], for which the negative logarithm of the IC50 (pIC50) was 6.30 to 6.70.
Turning to `O=C(Nc1nnc(OCc2ccc(Cl)cc2)s1)c1cnc(-c2ncc[nH]2)cc1N1CCOCC1` [Example 98, N-(5-((4-chlorobenzyl)oxy)-1,3,4-thiadiazol-2-yl)-6-(1H-imidazol-2-yl)-4-morpholinonicotinamide], the pIC50 was 6.00 to 6.30.
Then `COc1ccccc1-c1cc(CO)ncc1C(=O)Nc1nnc(OCc2ccc(Cl)cn2)s1` [Example 170, N-[5-[(5-chloropyridin-2-yl)methoxy]-1,3,4-thiadiazol-2-yl]-6-(hydroxymethyl)-4-(2-methoxyphenyl)pyridine-3-carboxamide], with no less than 6.70; and `O=C(Nc1nnc(OCc2ccc(Cl)cc2)s1)c1cccnc1-c1ccc(=O)[nH]c1` [Example 79, N-(5-((4-chlorobenzyl)oxy)-1,3,4-thiadiazol-2-yl)-6′-oxo-1′,6′-dihydro-[2,3′-bipyridine]-3-carboxamide or its tautomer N-(5-((4-chlorobenzyl)oxy)-1,3,4-thiadiazol-2-yl)-6′-hydroxy-[2,3′-bipyridine]-3-carboxamide], with 6.00 to 6.30; and `COc1ccccc1-c1cc(C)ncc1C(=O)Nc1nnc(OCc2ccc(C3CC3)cn2)s1` [Example 214, N-(5-((5-cyclopropylpyridin-2-yl)methoxy)-1,3,4-thiadiazol-2-yl)-4-(2-methoxyphenyl)-6-methylnicotinamide], with no less than 6.70.
Then `COc1ccccc1-c1cc(CCC#N)ncc1C(=O)Nc1nnc(OCc2ccc(Cl)cc2)s1` [Example 164, N-[5-[(4-chlorophenyl)methoxy]-1,3,4-thiadiazol-2-yl]-6-(2-cyanoethyl)-4-(2-methoxyphenyl)pyridine-3-carboxamide], with no less than 6.70; and `COc1ccccc1-c1cn2ccnc2cc1C(=O)Nc1nnc(OCc2ccc(Cl)cc2)s1` [Example 161, N-(5-((4-chlorobenzyl)oxy)-1,3,4-thiadiazol-2-yl)-6-(2-methoxyphenyl)imidazo[1,2-a]pyridine-7-carboxamide], with no less than 6.70.
Then `COc1ccccc1-n1cncc1C(=O)Nc1nnc(OCc2ccc(Br)cc2)s1` [Example 86, N-(5-((4-bromobenzyl)oxy)-1,3,4-thiadiazol-2-yl)-1-(2-methoxyphenyl)-1H-imidazole-5-carboxamide], with no less than 6.70; and `CC(=O)N1CCN(c2ncccc2C(=O)Nc2nnc(OCc3ccc(Cl)cc3)s2)CC1` [Example 16, 2-(4-acetylpiperazin-1-yl)-N-(5-((4-chlorobenzyl)oxy)-1,3,4-thiadiazol-2-yl)nicotinamide], with 5.00 to 6.00.
In the case of `COc1ccccc1-c1cc(C#N)ncc1C(=O)Nc1nnc(OCCC2CC2)s1` [Example 154, 6-cyano-N-(5-(2-cyclopropylethoxy)-1,3,4-thiadiazol-2-yl)-4-(2-methoxyphenyl)nicotinamide], the pIC50 was no less than 6.70.
Under `O=C(Nc1nnc(OCc2ccc(C3CC3)cc2)s1)c1cccnc1N1CCOCC1` [Example 47, N-(5-((4-cyclopropylbenzyl)oxy)-1,3,4-thiadiazol-2-yl)-2-morpholinonicotinamide] stands 6.30 to 6.70; under `O=C1CCN(c2ncccc2C(=O)Nc2nnc(OCc3ccc(Cl)cc3)s2)CCN1` [Example 61, N-(5-((4-chlorobenzyl)oxy)-1,3,4-thiadiazol-2-yl)-2-(5-oxo-1,4-diazepan-1-yl)nicotinamide], 6.00 to 6.30; under `O=C(Nc1nnc(OCc2ccc(Cl)cc2)s1)c1cncn1-c1ccncc1` [Example 18, N-(5-((4-chlorobenzyl)oxy)-1,3,4-thiadiazol-2-yl)-1-(pyridin-4-yl)-1H-imidazole-5-carboxamide], 6.00 to 6.30.
On to `O=C(Nc1nnc(OCc2ccc(Cl)nc2)s1)c1cccnc1N1CCOCC1` [Example 8, N-(5-((6-chloropyridin-3-yl)methoxy)-1,3,4-thiadiazol-2-yl)-2-morpholinonicotinamide], for which the pIC50 is 5.00 to 6.00.
In the case of `N#Cc1ccc(OC2COC2)c(-c2cnccc2C(=O)Nc2nnc(OCc3ccc(Cl)cc3)s2)c1` [Example 172, N-(5-((4-chlorobenzyl)oxy)-1,3,4-thiadiazol-2-yl)-3-(5-cyano-2-(oxetan-3-yloxy)phenyl)isonicotinamide], the pIC50 was no less than 6.70.
For `COc1ccccc1-c1cc(C)ncc1C(=O)Nc1nnc(OCCc2ccc(Cl)cn2)s1` [Example 197, N-(5-(2-(5-chloropyridin-2-yl)ethoxy)-1,3,4-thiadiazol-2-yl)-4-(2-methoxyphenyl)-6-methylnicotinamide], the pIC50 is 6.30 to 6.70.
With `COc1ccccc1-c1cc(C(C)(C)O)ncc1C(=O)Nc1nnc(OCc2ccc(Cl)cn2)s1` [Example 207, N-(5-((5-chloropyridin-2-yl)methoxy)-1,3,4-thiadiazol-2-yl)-6-(2-hydroxypropan-2-yl)-4-(2-methoxyphenyl)nicotinamide], the pIC50 is 5.00 to 6.00.
On to `Cc1cc(-c2cccc3c2OC(F)(F)O3)c(C(=O)Nc2nnc(OCc3ccc(Cl)cn3)s2)cn1` [Example 208, N-(5-((5-chloropyridin-2-yl)methoxy)-1,3,4-thiadiazol-2-yl)-4-(2,2-difluorobenzo[d][1,3]dioxol-4-yl)-6-methylnicotinamide], for which the pIC50 is no less than 6.70.
Then `O=C(Nc1nnc(OCc2ccc(Cl)cn2)s1)c1ccncc1-c1c(F)cccc1OC(F)F` [Example 182, N-(5-((5-chloropyridin-2-yl)methoxy)-1,3,4-thiadiazol-2-yl)-3-(2-(difluoromethoxy)-6-fluorophenyl)isonicotinamide], with no less than 6.70; and `COc1ccccc1-c1cc(CCO)ncc1C(=O)Nc1nnc(OCc2ccc(Cl)cc2)s1` [Example 166, N-(5-((4-chlorobenzyl)oxy)-1,3,4-thiadiazol-2-yl)-6-(2-hydroxyethyl)-4-(2-methoxyphenyl)nicotinamide], with no less than 6.70; and `COc1ccc(CO)cc1-c1cc(C)ncc1C(=O)Nc1nnc(OCc2ccc(Cl)cn2)s1` [Example 200, N-(5-((5-chloropyridin-2-yl)methoxy)-1,3,4-thiadiazol-2-yl)-4-(5-(hydroxymethyl)-2-methoxyphenyl)-6-methylnicotinamide], with no less than 6.70.
Under `Cc1cn[nH]c1-c1cnccc1C(=O)Nc1nnc(OCc2ccc(Cl)cc2)s1` [Example 118, N-(5-((4-chlorobenzyl)oxy)-1,3,4-thiadiazol-2-yl)-3-(4-methyl-1H-pyrazol-5-yl)isonicotinamide] stands 6.30 to 6.70; under `COc1ccccc1-c1cc(C)ncc1C(=O)Nc1nnc(OCc2ccc(C)cn2)s1` [Example 205, 4-(2-methoxyphenyl)-6-methyl-N-(5-((5-methylpyridin-2-yl)methoxy)-1,3,4-thiadiazol-2-yl)nicotinamide], no less than 6.70.
